Experimental data as given in ChEMBL document CHEMBL1201862, “PubChem BioAssay data set” (2004).
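96-well plates; 48 h exposure; 5 concentrations. Endpoints by linear interpolation between flanking doses. Not reached: highest tested concentration assigned. GI50: concentration for 50% inhibition of growth.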 Activity calls are given as the source filed them. Rule as the data show it: active = GI50 up to about 1.1 µM and inactive = higher.

Legend:
Assay in all cases: NCI tumour cell line growth inhibition, 48 h
NCI-H226 = system: NCI-H226
HCT-116 = system: HCT-116
A498 = system: A498
KM12 = system: KM12
K562 = system: K562
COLO 205 = system: COLO 205
OVCAR-5 = system: OVCAR-5
SW-620 = system: SW-620
MDA-N = system: MDA-N
OVCAR-8 = system: OVCAR-8
OVCAR-3 = system: OVCAR-3
SK-MEL-28 = system: SK-MEL-28
HL-60 = system: HL-60
ACHN = system: ACHN
HT-29 = system: HT-29
T47D = system: T47D
SK-MEL-5 = system: SK-MEL-5
CAKI-1 = system: CAKI-1
MCF7 = system: MCF7
NCI-H522 = system: NCI-H522
786-0 = system: 786-0
SR = system: SR
SF-295 = system: SF-295
NCI-H23 = system: NCI-H23
SN12C = system: SN12C
DU-145 = system: DU-145
RPMI-8226 = system: RPMI-8226
HOP-62 = system: HOP-62
MOLT-4 = system: MOLT-4
LOX IMVI = system: LOX IMVI
M14 = system: M14
Malme-3M = system: Malme-3M
MDA-MB-435 = system: MDA-MB-435
Hs-578T = system: Hs-578T
SK-MEL-2 = system: SK-MEL-2
NCI-H460 = system: NCI-H460
U-251 = system: U-251
IGROV-1 = system: IGROV-1
UO-31 = system: UO-31
UACC-62 = system: UACC-62
TK-10 = system: TK-10
MDA-MB-231 = system: MDA-MB-231
OVCAR-4 = system: OVCAR-4
PC-3 = system: PC-3
SF-539 = system: SF-539
HOP-92 = system: HOP-92
HCT-15 = system: HCT-15
SF-268 = system: SF-268
EKVX = system: EKVX
UACC-257 = system: UACC-257
SNB-19 = system: SNB-19
BT-549 = system: BT-549
NCI/ADR-RES = system: NCI/ADR-RES
RXF 393 = system: RXF 393
A549 = system: A549

COc1cc2c3cc1Oc1cc(ccc1O)C[C@@H]1c4c(cc(OC)c(O)c4Oc4ccc(cc4)C[C@@H]3N(C)CC2)CC[N+]1(C)C
GI50 (NCI-H226): > 100 µM (inactive) | GI50 (HCT-116): 48.4 µM (inactive) | GI50 (A498): 81.7 µM (inactive) | GI50 (KM12): 27.1 µM (inactive) | GI50 (K562): 42 µM (inactive) | GI50 (COLO 205): 77.1 µM (inactive) | GI50 (OVCAR-5): > 100 µM (inactive) | GI50 (SW-620): 27.2 µM (inactive) | GI50 (MDA-N): > 100 µM (inactive) | GI50 (OVCAR-8): 58.7 µM (inactive) | GI50 (OVCAR-3): 25.7 µM (inactive) | GI50 (SK-MEL-28): > 100 µM (inactive) | GI50 (HL-60): > 100 µM (inactive) | GI50 (ACHN): > 100 µM (inactive) | GI50 (HT-29): 46.5 µM (inactive) | GI50 (T47D): 23.8 µM (inactive) | GI50 (SK-MEL-5): > 100 µM (inactive) | GI50 (CAKI-1): > 100 µM (inactive) | GI50 (MCF7): 22.4 µM (inactive) | GI50 (NCI-H522): 24.9 µM (inactive) | GI50 (786-0): 55.3 µM (inactive) | GI50 (SR): 24.8 µM (inactive) | GI50 (SF-295): 19.9 µM (inactive) | GI50 (NCI-H23): 52 µM (inactive) | GI50 (SN12C): > 100 µM (inactive) | GI50 (DU-145): 42 µM (inactive) | GI50 (RPMI-8226): 79.6 µM (inactive) | GI50 (HOP-62): 6.95 µM (inactive) | GI50 (MOLT-4): 61.8 µM (inactive) | GI50 (LOX IMVI): 17.8 µM (inactive) | GI50 (M14): 16.8 µM (inactive) | GI50 (Malme-3M): 17.8 µM (inactive) | GI50 (MDA-MB-435): 43.7 µM (inactive) | GI50 (Hs-578T): 13.5 µM (inactive) | GI50 (SK-MEL-2): 90.2 µM (inactive) | GI50 (NCI-H460): 33.3 µM (inactive) | GI50 (U-251): 28.9 µM (inactive) | GI50 (IGROV-1): > 100 µM (inactive) | GI50 (UO-31): > 100 µM (inactive) | GI50 (UACC-62): > 100 µM (inactive) | GI50 (TK-10): > 100 µM (inactive) | GI50 (MDA-MB-231): 25.1 µM (inactive) | GI50 (OVCAR-4): 73.8 µM (inactive) | GI50 (PC-3): 21.9 µM (inactive) | GI50 (SF-539): 15.1 µM (inactive) | GI50 (HOP-92): 11.6 µM (inactive) | GI50 (HCT-15): 70.1 µM | GI50 (SF-268): 32.4 µM (inactive) | GI50 (EKVX): > 100 µM (inactive) | GI50 (UACC-257): 56 µM (inactive) | GI50 (SNB-19): > 100 µM (inactive) | GI50 (BT-549): > 100 µM (inactive) | GI50 (NCI/ADR-RES): > 100 µM (inactive) | GI50 (RXF 393): 13.6 µM (inactive) | GI50 (A549): > 100 µM (inactive)
